# Results taken from patent US7045343B2, “Sterilization indicator test packs” (3M Innovative Properties Company, priority 1998, dated 2006).
# Assays:
# [1] = test system: enzyme associated with Bacillus stearothermophilus spores; experiment: Rapid enzyme fluorescence readout of dual rapid readout indicators after prevacuum steam sterilization; assay type: biochemical; settings: 4-pulse prevacuum steam 121° C.; for FLUORESCENCE - PERCENT POSITIVE 1 HR / FLUORESCENCE - PERCENT POSITIVE 2 HR / FLUORESCENCE - PERCENT POSITIVE 3 HR / FLUORESCENCE - PERCENT POSITIVE 4 HR: Example 5, 7–13 min
# Experimental: (§1) The indicators prepared for the Examples were dual rapid readout indicators that provided both a rapid, enzyme-based efficacy test and a confirmatory spore outgrowth test. Spores coated on the carrier strip 16 served as the source of active enzyme whose activity was measured by the rapid enzyme test. These same spores were then incubated in the spore outgrowth portion of the test.
# (§2) Bacillus stearothermophilus, commercially available as ATCC 7953 from American Type Culture Collection, Rockville, Md., was grown overnight (16 hours) at 58° C. in tryptic soy broth. This culture was used to inoculate the surface of agar plates consisting of 8 g/l nutrient broth, 4 g/l yeast extract, 0.1 g/l manganese chloride and 20 g/l agar at pH 7.2. Plates were incubated at 58° C. for 72 hours. Spores were scraped from the plates and suspended in sterile distilled water. The spores were separated from the vegetative debris by centrifuging the suspension at 7000 rpm and 4° C. for 20 minutes. The supernatant was poured off and the spores were resuspended in sterile distilled water. The cleaning procedure was repeated several times. After the final wash, the spores were suspended in sterile distilled water, at a concentration of approximately 1×10^8 spores per milliliter.
# (§3) The spores were then treated with the chemicals identified in Tables 1–5. All chemicals tested were obtained from commercial sources. The spores were centrifuged at 6000 rpm for 10 minutes. The supernatant and coating chemical mixtures were heated at 60–80° C. for several minutes and vortexed to get the material into solution. The spores were then mixed into the sterilant-resistant chemical solution. The sterilant-resistant chemical solution was applied to 5×25 mm, 591 A paper strips (Schleicher & Schuell, Inc., Keene, N.H.) by pipetting 10–15 microliters to each strip for a final population of about 1×10^6 spores per strip. The strips were dried 16 hours at 37° C.
# (§4) The treated spore strips were placed on the bottom of the outer container 12 of the indicator 10 and a barrier was inserted between the spore strip 16 and the inner container 18, which contained enzyme substrate. A […] ( 11/16 inch) disc of polypropylene blown microfiber material, with a weight of 200 g/m^2, commercially available as “THINSULATE™ 200-B brand Thermal Insulation” from 3M Company, St. Paul, Minn., was used as the barrier. The inner container 18 contained 0.67 ml nutrient medium, consisting of 17 g of a bacteriological peptone and a 0.17 g/l of L-alanine, as well as 0.1 g 4-methylumbelliferyl-alpha-D-glucoside, commercially available from Sigma Chemical Company, St. Louis, Mo., dissolved in 200 microliters of N,N-dimethylformamide, and 0.03 g bromocresol purple pH indicator dye, per liter of water. The pH of the enzyme substrate and nutrient medium solution was adjusted to 7.6 with 0.1N sodium hydroxide.
# (§5) Sterilization indicators were made as described above with each of the chemicals and concentrations described in Table 1. Control indicators were made using untreated spores. The indicators were placed in metal instrument trays and exposed at 121° C. in a Getinge Steam Sterilizer (Getinge International, Inc., 1100 Towbin Ave., Lakewood, N.J.) using a 4-pulse prevacuum cycle at 121° C. with a vacuum level of 0.075–0.085 bar and a steam pulse to 1.00 bar for each pulse. Indicators were exposed in the sterilizer for between 7 and 13 minutes. This cycle is depicted in the time-pressure diagram in FIG. 5. After exposure the inner containers containing the enzyme substrate and nutrient medium were crushed and the indicators were incubated at 60° C. The indicators were examined for fluorescence using a 3M™ ATTEST™ Model 190 Rapid Autoreader, commercially available from 3M Company, St. Paul, Minn. Additionally, spore growth, as indicated by a color change from purple to yellow, was determined visually after 168 hours of incubation at 60° C. […]
# [2] = test system: Bacillus stearothermophilus spores; experiment: Spore outgrowth (color change) of indicators after prevacuum steam sterilization; assay type: cell-based; settings: Example 5, 4-pulse prevacuum steam 121° C., 7–13 min
# Experimental: as §1, §2, §3, §4, §5
# [3] = test system: enzyme associated with Bacillus stearothermophilus spores; experiment: Rapid enzyme fluorescence readout of indicators after hydrogen peroxide plasma sterilization; assay type: biochemical; settings: 1–3 hours after exposure
# Experimental: Sterilization indicators for Examples 6–9 were prepared as described above with the exception that closure member 22 of the sterilization indicator was constructed of TYVEK™ high-density polyethylene fiber material, commercially available from E.I. du Pont de Nemours and Co., Wilmington, Del.
# (§6) Sterilization indicators were made as described above with spores that had been coated with each of the chemicals and concentrations listed in Table 6. The indicators were placed in instrument trays and exposed to a hydrogen peroxide plasma sterilization procedure at 45–55° C. in a STERRAD™ 100SI GMP Sterilizer, obtained from Advanced Sterilization Products Co., Irvine, Calif. During the sterilization procedure a vacuum was drawn in the sterilization chamber for 5–6 minutes until the pressure was reduced to 300 mTorr. A 1.8 ml aliquot of an aqueous solution of 58–60% hydrogen peroxide was then injected into the sterilization chamber over a period of about 6 minutes, yielding an empty chamber concentration of […] hydrogen peroxide, and hydrogen peroxide vapor was allowed to diffuse throughout the chamber for 1–22 minutes at 6–10 Torr. A vacuum was then drawn, reducing the pressure to 500 mTorr and removing all detectable hydrogen peroxide vapor from the chamber.
# After exposure to the sterilization procedure, the indicators were removed from the sterilizer and the inner containers containing the enzyme substrate and nutrient medium were crushed. The indicators were then incubated at 60° C. and examined for fluorescence every hour for 5 hours using a 3M™ ATTEST™ Model 190 Rapid Autoreader, commercially available from 3M Company, St. Paul, Minn. Additionally, spore growth, as indicated by a color change from purple to yellow, was determined visually after 168 hours of incubation.
# The number of growth positive indicators detected after 168 hours of incubation is recorded in Table 6.
# as §6, with “7.” for “6.”
# as §6, with “8.” for “6.”, “chamber. […]” for “chamber.”
Compound,accuracy of sterilization indicators compared to indicators made with untreated spores [1],FLUORESCENCE - PERCENT POSITIVE 1 HR ([1]; 50 mg/ml coating),FLUORESCENCE - PERCENT POSITIVE 2 HR ([1]; 50 mg/ml coating),FLUORESCENCE - PERCENT POSITIVE 3 HR ([1]; 50 mg/ml coating),FLUORESCENCE - PERCENT POSITIVE 4 HR ([1]; 50 mg/ml coating),FLUORESCENCE - PERCENT POSITIVE 1 HR ([1]; 100 mg/ml coating),FLUORESCENCE - PERCENT POSITIVE 2 HR ([1]; 100 mg/ml coating),FLUORESCENCE - PERCENT POSITIVE 3 HR ([1]; 100 mg/ml coating),FLUORESCENCE - PERCENT POSITIVE 4 HR ([1]; 100 mg/ml coating),NO. GROWTH POSITIVE 168 HR ([2]; 50 mg/ml coating),NO. GROWTH POSITIVE 168 HR ([2]; 100 mg/ml coating),accuracy of sterilization indicators compared to indicators made with untreated spores [3]
polyoxyethylene (5) glyceryl monostearate [POE (5) Glyceryl Monostearate],improved,0%,100.0%,100.0%,100.0%,0%,100%,100%,100%,15,5,
Decaglyceryl Diisostearate,improved,30%,80.0%,100%,100%,28.6%,100.0%,100%,100%,10,14,
"O=CC(=O)C=O [1,2,3-Propantrial]",,,,,,,,,,,,improved
